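Five concentrations, 48 hours, 96-well plates. Here, GI50 denotes the concentration required for 50% inhibition of growth.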 Activity calls are given as the source filed them. No stated cut-off is given here; in the data, active = GI50 up to about 1.1 µM and inactive = higher.
Columns and labels:
Assay in all cases: inhibition of tumour cell growth, NCI panel, 48 h
786-0 = system: 786-0
CCRF-CEM = system: CCRF-CEM
EKVX = system: EKVX
HCT-116 = system: HCT-116
HCT-15 = system: HCT-15
HOP-62 = system: HOP-62
HT-29 = system: HT-29
LOX IMVI = system: LOX IMVI
MDA-MB-435 = system: MDA-MB-435
NCI-H226 = system: NCI-H226
NCI/ADR-RES = system: NCI/ADR-RES
OVCAR-5 = system: OVCAR-5
OVCAR-8 = system: OVCAR-8
RXF 393 = system: RXF 393
SF-268 = system: SF-268
SF-295 = system: SF-295
SK-OV-3 = system: SK-OV-3
UACC-257 = system: UACC-257
UO-31 = system: UO-31

For `Cn1c(=O)c2c(nc3n(CC(O)CCl)c(=O)ccn23)n(C)c1=O` (centres undefined), the GI50 (786-0) was 26.4 µM (inactive), the GI50 (CCRF-CEM) was 5.19 µM (inactive) and the GI50 (EKVX) was 42.9 µM (inactive). The GI50 (HCT-116) was 18.2 µM (inactive), the GI50 (HCT-15) was 34.9 µM and the GI50 (HOP-62) was 46.9 µM (inactive). The GI50 (HT-29) was 30.8 µM (inactive), the GI50 (LOX IMVI) was 29.1 µM (inactive) and the GI50 (MDA-MB-435) was 47.8 µM (inactive). The GI50 (NCI-H226) was 22.6 µM (inactive), the GI50 (NCI/ADR-RES) was 19.3 µM (inactive) and the GI50 (OVCAR-5) was > 100 µM (inactive). The GI50 (OVCAR-8) was 18.7 µM (inactive), the GI50 (RXF 393) was > 100 µM (inactive) and the GI50 (SF-268) was 20.5 µM (inactive). The GI50 (SF-295) was 47.5 µM (inactive), the GI50 (SK-OV-3) was 45.1 µM (inactive) and the GI50 (UACC-257) was 76.6 µM (inactive). For the same compound, the GI50 (UO-31) was 37.5 µM (inactive).

For `CC(C)=CC1C(COC(=O)c2ccccc2Cl)C1(C)C` (centres undefined), the GI50 (786-0) was 33.2 µM (inactive), the GI50 (CCRF-CEM) was 56.8 µM (inactive) and the GI50 (EKVX) was 25.8 µM (inactive). The GI50 (HCT-116) was 49.3 µM (inactive), the GI50 (HCT-15) was 25.6 µM and the GI50 (HOP-62) was 38.4 µM (inactive). For the same compound, the GI50 (HT-29) was 29.6 µM (inactive), the GI50 (LOX IMVI) was 20.2 µM (inactive) and the GI50 (MDA-MB-435) was 85.1 µM (inactive). The GI50 (NCI-H226) was 30.4 µM (inactive), the GI50 (NCI/ADR-RES) was 41.2 µM (inactive) and the GI50 (OVCAR-5) was 38.3 µM (inactive). For the same compound, the GI50 (OVCAR-8) was 53.1 µM (inactive), the GI50 (RXF 393) was 24.9 µM (inactive) and the GI50 (SF-268) was 27.5 µM (inactive). The GI50 (SF-295) was 35.5 µM (inactive), the GI50 (UACC-257) was 48.9 µM (inactive) and the GI50 (UO-31) was 78.5 µM (inactive).

With `COCCOCc1nc(C#N)c(N)o1` the GI50 (786-0) was > 100 µM (inactive), the GI50 (CCRF-CEM) was > 100 µM (inactive) and the GI50 (EKVX) was > 100 µM (inactive). The GI50 (HCT-116) was > 100 µM (inactive), the GI50 (HCT-15) was > 100 µM and the GI50 (HOP-62) was > 100 µM (inactive). For the same compound, the GI50 (HT-29) was > 100 µM (inactive), the GI50 (LOX IMVI) was > 100 µM (inactive) and the GI50 (MDA-MB-435) was > 100 µM (inactive). For the same compound, the GI50 (NCI-H226) was > 100 µM (inactive), the GI50 (NCI/ADR-RES) was > 100 µM (inactive) and the GI50 (OVCAR-5) was > 100 µM (inactive). For the same compound, the GI50 (RXF 393) was > 100 µM (inactive), the GI50 (SF-268) was > 100 µM (inactive) and the GI50 (SF-295) was > 100 µM (inactive). For the same compound, the GI50 (SK-OV-3) was > 100 µM (inactive), the GI50 (UACC-257) was > 100 µM (inactive) and the GI50 (UO-31) was > 100 µM (inactive).

`COC(=O)c1cc(O)c(O)c(O)c1-c1c(O)c(O)c(O)c(SC[C@H](NC(=O)OCc2ccccc2)C(=O)OCc2ccccc2)c1C(=O)OC` was tested, and the GI50 (786-0) was 18.6 µM (inactive), the GI50 (CCRF-CEM) was 16.3 µM (inactive) and the GI50 (EKVX) was 19.7 µM (inactive). The GI50 (HCT-116) was 17.3 µM (inactive), the GI50 (HCT-15) was 27.5 µM and the GI50 (HOP-62) was 35.1 µM (inactive). For the same compound, the GI50 (HT-29) was 28.3 µM (inactive), the GI50 (LOX IMVI) was 17.9 µM (inactive) and the GI50 (MDA-MB-435) was 11.1 µM (inactive). The GI50 (NCI-H226) was 21.2 µM (inactive), the GI50 (NCI/ADR-RES) was 35 µM (inactive) and the GI50 (OVCAR-5) was 33.9 µM (inactive). For the same compound, the GI50 (OVCAR-8) was 21.2 µM (inactive), the GI50 (RXF 393) was 20.2 µM (inactive) and the GI50 (SF-268) was 25.9 µM (inactive). The GI50 (SF-295) was 35.3 µM (inactive), the GI50 (SK-OV-3) was 41.9 µM (inactive) and the GI50 (UACC-257) was 32.8 µM (inactive).

For `CC(=N\N=C\c1ccccn1)/C(C)=N/N=C(C)/C(C)=N/N=C/c1ccccn1`, the GI50 (786-0) was > 100 µM (inactive), the GI50 (CCRF-CEM) was > 100 µM (inactive) and the GI50 (EKVX) was > 100 µM (inactive). For the same compound, the GI50 (HCT-116) was > 100 µM (inactive), the GI50 (HCT-15) was 71.3 µM and the GI50 (HOP-62) was > 100 µM (inactive). The GI50 (HT-29) was > 100 µM (inactive), the GI50 (LOX IMVI) was > 100 µM (inactive) and the GI50 (MDA-MB-435) was > 100 µM (inactive). The GI50 (NCI-H226) was > 100 µM (inactive), the GI50 (NCI/ADR-RES) was > 100 µM (inactive) and the GI50 (OVCAR-5) was > 100 µM (inactive). For the same compound, the GI50 (OVCAR-8) was > 100 µM (inactive), the GI50 (RXF 393) was > 100 µM (inactive) and the GI50 (SF-268) was > 100 µM (inactive). The GI50 (SF-295) was > 100 µM (inactive), the GI50 (SK-OV-3) was > 100 µM (inactive) and the GI50 (UACC-257) was > 100 µM (inactive). For the same compound, the GI50 (UO-31) was > 100 µM (inactive).

For `CC1(C)N=C2C(=O)c3c([nH]c4ccccc34)[C@]3(C)CCC1CC23` (some centres undefined), the GI50 (786-0) was > 6.25 µM (inactive), the GI50 (CCRF-CEM) was > 6.25 µM (inactive) and the GI50 (EKVX) was > 6.25 µM (inactive). For the same compound, the GI50 (HCT-116) was > 6.25 µM (inactive), the GI50 (HCT-15) was > 6.25 µM and the GI50 (HOP-62) was > 6.25 µM (inactive). The GI50 (HT-29) was > 6.25 µM (inactive), the GI50 (LOX IMVI) was > 6.25 µM (inactive) and the GI50 (MDA-MB-435) was > 6.25 µM (inactive). The GI50 (NCI-H226) was > 6.25 µM (inactive), the GI50 (NCI/ADR-RES) was > 6.25 µM (inactive) and the GI50 (OVCAR-5) was > 6.25 µM (inactive). For the same compound, the GI50 (OVCAR-8) was > 6.25 µM (inactive), the GI50 (RXF 393) was > 6.25 µM (inactive) and the GI50 (SF-268) was > 6.25 µM (inactive). For the same compound, the GI50 (SF-295) was > 6.25 µM (inactive), the GI50 (UACC-257) was > 6.25 µM (inactive) and the GI50 (UO-31) was > 6.25 µM (inactive).

`O=C1NC(=S)NC(=O)C1C(c1ccc(O)cc1)C1C(=O)NC(=S)NC1=O.c1ccncc1` was tested, and the GI50 (786-0) was > 100 µM (inactive), the GI50 (CCRF-CEM) was > 100 µM (inactive) and the GI50 (HCT-116) was > 100 µM (inactive). For the same compound, the GI50 (HCT-15) was > 100 µM, the GI50 (HOP-62) was > 100 µM (inactive) and the GI50 (HT-29) was > 100 µM (inactive). The GI50 (LOX IMVI) was > 100 µM (inactive), the GI50 (MDA-MB-435) was > 100 µM (inactive) and the GI50 (NCI-H226) was > 100 µM (inactive). The GI50 (NCI/ADR-RES) was > 100 µM (inactive), the GI50 (OVCAR-5) was > 100 µM (inactive) and the GI50 (OVCAR-8) was > 100 µM (inactive). For the same compound, the GI50 (RXF 393) was > 100 µM (inactive), the GI50 (SF-295) was > 100 µM (inactive) and the GI50 (UACC-257) was > 100 µM (inactive). For the same compound, the GI50 (UO-31) was > 100 µM (inactive).

For `O=c1c(Cl)cc2nc3ccccc3sc-2c1Cl`, the GI50 (786-0) was 21.2 µM (inactive), the GI50 (CCRF-CEM) was 4.67 µM (inactive) and the GI50 (EKVX) was 3.22 µM (inactive). The GI50 (HCT-116) was 16.2 µM (inactive), the GI50 (HCT-15) was 14.7 µM and the GI50 (HOP-62) was 26.1 µM (inactive). The GI50 (HT-29) was 23.2 µM (inactive), the GI50 (LOX IMVI) was 12 µM (inactive) and the GI50 (MDA-MB-435) was 2.82 µM (inactive). The GI50 (NCI-H226) was 16.5 µM (inactive), the GI50 (NCI/ADR-RES) was 21.5 µM (inactive) and the GI50 (OVCAR-5) was 24.7 µM (inactive). The GI50 (RXF 393) was 18.5 µM (inactive), the GI50 (SF-268) was 14.9 µM (inactive) and the GI50 (SF-295) was 16.9 µM (inactive). The GI50 (SK-OV-3) was 21 µM (inactive), the GI50 (UACC-257) was 2.75 µM (inactive) and the GI50 (UO-31) was 15.3 µM (inactive).
